Data from a melting point compilation (Tetko et al.; mined from patent text by program, amines drawn as free bases though some values may be those of a salt).

melting point [°C] | Structure (SMILES)
206 to 209 | CCOC(=O)c1cn(-c2nc(NC(C)C)c(F)cc2F)c2c(Cl)c(F)c(F)cc2c1=O
128 to 130 | CC1=CC2C(=O)NC(=O)C2(Cc2ccccc2)C=C1 (centres undefined)
241 to 242 | CC(=O)Nc1cccc(-c2nc(=O)c3ccccc3s2)c1
181 to 182 | CCOP(=O)(Cc1ccc(NC(=O)[C@H]2Cc3cc4c(cc3C(=O)[C@H](C)S2)OCO4)cc1)OCC
170 to 172 | CC(C)Oc1cccc(N2CC(=O)NC(=O)N2)c1
170 to 175 | CCc1nc2cc(C(N)=O)c(Cl)cc2n1-c1ccc(CCOC(=O)NS(=O)(=O)c2ccc(C)cc2)cc1
157 to 158 | CCOC(=O)c1sc(-c2ccc3c(=O)n(CC(C)C)c(CNC(=O)OCC4c5ccccc5-c5ccccc54)c(-c4ccccc4)c3c2)nc1C
115 to 118 | Nc1nccc2ccc(OS(=O)(=O)C(F)(F)F)cc12
61.8 | COC(=O)C(O)c1cc(F)cc(F)c1 (centres undefined)
117 | COc1ccc(C)cc1C(CCO)c1cc(C)ccc1OC
174 to 176 | Cc1cc(=O)oc2cc(NCc3ccccc3)ccc12
159 to 161 | CCOC(=O)Nc1c(C(=O)c2ccccc2)[nH]c2cc(Cl)ccc12
222 | CCOC(=O)c1cccc(-c2coc3c(C)c(O)ccc3c2=O)c1
81 to 84 | COC(=O)C(c1ccccc1)N1C(=O)C(N=[N+]=[N-])C1Sc1nnc(C)s1 (centres undefined)
190 to 191 | COc1ccc(Nc2nc(N)nc3c2ncn3C2CC(F)C(CO)O2)cc1 (centres undefined)
291 to 292 | CCOC(=O)c1cc2c(cn1)[nH]c1c(Br)cc([N+](=O)[O-])cc12
115 to 119 | COc1ccc2c(c1)c(C(C)=NOC1CCCCO1)c(C)n2C(=O)c1ccc(Cl)cc1 (centres undefined)
73 to 74 | COc1ccc(OC)c(CCNC(=O)N(C)O)c1
102 to 103 | O=C(O)CCc1cnoc1-c1ccc(F)c(F)c1

melting point [°C] | Structure (SMILES)
196 | CCOC(=O)C1=CC(C(=O)c2cc(Cl)c(C)cc2O)=CN2CCc3c([nH]c4ccccc34)C12C(=O)OCC (centres undefined)
44 to 45.5 | COc1ccc(C(=O)Cc2cccs2)cc1
226 to 227 | COc1ccccc1Oc1cc2c(=O)c(NC=O)coc2cc1NS(C)(=O)=O
262 to 268 | Nc1ncc(-c2ccc(=O)[nH]n2)c(-c2ccco2)n1
133 to 135 | CCC(CO)Nc1cc(C)nc(Oc2c(C)cc(Cl)cc2C)c1CO (centres undefined)
229 | CCOC(=O)c1nc2ccc(OC)cc2[nH]c1=O
140 to 141 | CC(C)(Oc1ccc(Cl)cc1)C(C)(O)c1cccnc1 (centres undefined)
184 to 192 | CC(C)(CCO)c1ccc2ncc(C(=O)NCc3ccc(Cl)cc3)c(O)c2c1
166 to 167 | CC(=O)Oc1cc2c(cc1C(C)(C)CC(C)(C)C)OC(C)(COc1ccc([N+](=O)[O-])cc1)CC2=O (centres undefined)
151 to 158 | C=CCNC(=O)CN1CCN(Cc2ccc3c(c2)NC(=O)C(C)O3)CC1 (centres undefined)
164 to 167 | COc1cccc(C2C=C(C)NC3=C2C(=O)CCC3)c1 (centres undefined)
98 to 102 | CCCC(=O)Oc1cc(C(C)C)ccc1C1(OC(=O)CCC)C(=O)c2ccccc2C1=O
255 to 257 | O=c1c2ccc(Cl)cc2[nH]c2c(O)nn(CC#Cc3ccccc3Cl)c(=O)c12
212 to 214 | Cc1cccc2c1C(=O)N1CCCC1C(=O)N2 (centres undefined)
86 to 88 | Cc1c(-c2ccncc2)oc2c1C(=O)CCC2(C)C
67 to 87 | CCOC(=O)CN1C(=O)CSC1=Nc1cc(-n2c(=O)cc(C(F)(F)F)n(C)c2=O)c(F)cc1Cl
128 to 130 | CCOc1cccc(N(C(=O)CCC(=O)O)c2cc(C(C)(C)C)c(O)c(C(C)(C)C)c2)c1
143 to 144 | COc1ccc(CCNC(=O)C(F)(F)F)cc1S(=O)(=O)N=CN(C)C

The remaining lines, values behind:

Structure (SMILES) | melting point [°C]
O=C(O)c1ccc(COc2ccc3c(c2)CCN(C2CCN(C4CCC4)CC2)C3=O)cc1 | 269 to 270
O=C(O)c1ccc(NCCC(c2ccc(Cl)cc2)c2ccc(Cl)cc2)cc1 | 213 to 215
C=C(CCCCCCCCCCCCCCCCCC)C(=O)OC | 48 to 50
CC(C)(C)OC(=O)C(CSCc1ccc(-c2ccc(-c3cccc4c3oc3ccccc34)cc2)cc1)C(=O)O (centres undefined) | 205 to 206
O=C(NC(Cc1ccc(OCc2cccc(F)c2)cc1)C(=O)O)c1cn2ccc(-c3ccc(Cl)cc3)cc2n1 (centres undefined) | 248 to 250
O=[N+]([O-])c1oc2ccc(N3Cc4ccccc4C3)cc2c1-c1ccccc1 | 228 to 230
CCCCCCCCCN(C[C@H]1CC[C@H](CN(CCCCCCCCC)C(=O)Nc2ccc(N(C)C)cc2)CC1)C(=O)Nc1ccc(N(C)C)cc1 | 96 to 98
O=S(Cc1ccc(Cl)cc1)C1CCC(C=CC=Cc2ccc(C(F)(F)F)cc2)CC1 (centres undefined) | 212 to 214
Nc1ncccc1C(=O)NCC1CCN(C[C@H]2COc3ccc(Cl)cc3O2)CC1 | 150 to 152
N#CN1CCC2(CC1)CN(c1ccccc1[N+](=O)[O-])c1ccccc12 | 148 to 150
N#Cc1ccc(NS(=O)(=O)c2ccc([N+](=O)[O-])cc2[N+](=O)[O-])cc1 | 186 to 187
CCOC(=O)N1CCN(C(c2ccccc2)c2ccccc2)CC1(C)Cc1ccc2c(c1)OCCO2 (centres undefined) | 153 to 155
COC(=O)C1CC(C(=O)OC)NC(=O)N1 (centres undefined) | 178 to 179
CN(C)c1c([N+](=O)[O-])c(C(C)(C)C)nn1-c1c(Cl)cc(C(F)(F)F)cc1Cl | 81 to 83
CN1CC(C)(C)c2ccc(NC(=O)/C=C/c3ccc(C(C)(C)C)cc3)cc21 | 90 to 101
N#CCC(C#N)=CNc1c(Cl)cc(C(F)(F)F)cc1Cl | 122
C=C1C[C@@H](O)[C@H](/C=C/[C@@H](O)CCCCC)[C@H]1Cc1cccc(OCc2ccccc2)c1 | 58
N#Cc1ccc2c(c1)COC2c1ccc(F)cc1 (centres undefined) | 96 to 98
CC12CCC(=O)C=C1CCC1C2C(O)CC2(C)C1CCC2(O)C(=O)COC(=O)CC(CC(=O)O)c1ccc(O)cc1 (centres undefined) | 98 to 110

Structure (SMILES) | melting point [°C]
CN1C(=O)C2(COc3cc4c(cc32)OCO4)c2ccccc21 (centres undefined) | 142 to 144
Cc1ccc(-c2ccc(OC3SCC(O)C(O)C3O)cn2)cc1 (centres undefined) | 191
COc1ccc(C)cc1NC(=O)Nc1ccc(N2CCN(C(=O)Nc3c(CO)cccc3C(F)(F)F)CC2)cc1 | 139 to 140
COC(=O)CCCc1cc2cc(Cl)ccc2n1S(=O)(=O)c1ccc(N2CCOCC2)nc1 | 130 to 132
FC(F)(F)c1ccccc1N=C1CCc2cc3c(nc21)C(=Nc1ccccc1C(F)(F)F)CC3 | > 350
CC(C)(Oc1ccc(CCN)cc1)C(=O)O | 187 to 189
CC(C)(C)C1=C(C#N)C(c2ccccc2Cl)c2c[nH]nc2N1 (centres undefined) | 198
CNC(=S)C1(c2cccnc2)CCCCC1=CCO (centres undefined) | 172 to 173
CN1CCC=C(c2nc(NC=O)sc2Cl)C1 | 193
N#Cc1ccc(F)cc1-c1ccc(OCc2ccccc2)cc1 | 94 to 96
COCOc1cc(F)ccc1-c1cc(-c2cccc(C(=O)O)c2)c(C#N)c(NC(=O)c2ccco2)n1 | 254
CCCCCCCCCC(=O)OCC#Cc1ncn2c1CN(C)C(=O)c1c(Cl)cccc1-2 | 70 to 72
Nc1nc2ccccc2n1CCCN1CCN(C(c2ccccc2)c2ccccc2)CC1 | 229
CC(=O)c1ccc(C2=NC[C@@H](OC(=O)Nc3ccccc3)[C@H](c3ccccc3)O2)cc1 (racemic) | 168
Cc1cc(-c2ccc(C(F)(F)F)cc2)cc(-c2cccc(-c3cccc(N)c3)n2)n1 | 167
CCCC(=O)c1cnc2c(C(O)CN3CCOCC3)cccc2c1Nc1ccccc1C (centres undefined) | 135 to 137
OC1CSC(Oc2cccc(-c3ccc(Cl)nc3)c2)C(O)C1O (centres undefined) | 189
Cc1nc2ccccn2c(=O)c1CCN1CCC(Nc2nc3ccccc3n2Cc2cnccn2)CC1 | 204
Cn1cc(C(=O)NCc2ccc(Cl)cc2)c(=O)c2cc(CN(CCO)Cc3ccccc3)ccc21 | 133 to 135

Structure (SMILES) | melting point [°C]
Cc1oc(-c2ccccc2)nc1COc1ccc(COc2ncccc2C=O)cc1 | 97 to 98
OCc1nc2cccnc2n1Cc1ccc(-c2ccccc2)cc1 | 163 to 165
N#CC(=CNc1ccccc1)Cc1cnc2ccccc2c1 | 202 to 203
CC(C)(C)c1ccc(SCCCCCOc2ccc(C3=C(c4ccccc4)CCCc4cc(O)ccc43)cc2)cc1 | 139
N#CC(Nc1ccc2ccccc2c1)c1c(Cl)cccc1Cl (centres undefined) | 94.8
O=[N+]([O-])c1cn2c(n1)OC[C@@H](OCC#Cc1ccc(Br)cc1)C2 | 160 to 162
Cc1oc(-c2ccc3ccccc3c2)nc1/C=C/c1ccc(CO)cc1 | 173 to 174
CN(C)CCNC(=O)c1cccc(-c2cccc3cn(Cc4cccc(C(F)(F)F)c4)nc23)c1 | 102 to 103
O=C(CC1CCCCC1)Nc1c(Cl)ccc2nc(N3CC[C@H](NCCc4nn[nH]n4)C3)ccc12 | 220 to 221
C=CCS(=O)c1ncc(Cl)cn1 (centres undefined) | 82
CC(=O)OC[C@H]1O[C@@H]2[C@@H](Sc3ccc(Cl)cc3N2C)[C@@H](OC(C)=O)[C@@H]1OC(C)=O | 217 to 218
O=CN(O)C(CCO)CS(=O)(=O)c1ccc(-c2ccc(Cl)cc2)cc1 (centres undefined) | 158 to 159
CC1CCN(CCCC(=O)c2ccc3c(c2)C(=O)c2cc(C(=O)CCCN4CCC(C)CC4)ccc2-3)CC1 | 178 to 180
O=c1c(CCCCc2ccccn2)cc2cccnc2n1-c1cccc([N+](=O)[O-])c1 | 163 to 165
CCNc1cccc2c(S(=O)(=O)Nc3ccc(Cl)nn3)cccc12 | 166 to 168
Cc1nn(C)c(C(N)=O)c1[N+](=O)[O-] | 153 to 155
CCCCCCCCCCCCCCCCOc1ccccc1-c1ccccc1 | 35 to 37
N#Cc1ccc(OCCCOc2ccc(-c3cc4ccc(C#N)cc4o3)cc2)cc1 | 208 to 210
CC(=O)OCC12CCC(=O)C=C1CCC1C2CCC2(C)C(O)CCC12 (centres undefined) | 125 to 127
